Active and inactive are the calls of the source. No cut-off for these calls is given here.

Data set [1] has as its system Mus musculus. Briefly: Anticonvulsant activity in mouse at 300 mg/kg, ip after 0.5 hrs by MES test. The format is functional, organism-based. Further details: dose 300 mg/kg.
In data set [2] the test system is Mus musculus. Nature of the data set: Anticonvulsant activity in mouse at 300 mg/kg, ip after 0.5 hrs by scPTZ test. The format is functional, organism-based. Also noted: dose 300 mg/kg.
Data set [3] deals with Mus musculus. Nature of the data set: Anticonvulsant activity in mouse at 300 mg/kg, ip after 4 hrs by scPTZ test. Format: functional, organism-based. Further details: dose 300 mg/kg.
For data set [4], the system named is Mus musculus. Briefly: Neurotoxicity in mouse assessed as minimal motor impairment at 300 mg/kg, ip after 4 hrs by rotarod test. Format: toxicity, organism-based. Also noted: dose 300 mg/kg, route intraperitoneal. Conditions: in vivo. For orientation: Falling from the rotarod earlier than controls is read as motor impairment.
The test system of data set [5] is Mus musculus. Briefly: Anticonvulsant activity in mouse at 300 mg/kg, ip after 4 hrs by MES test. Also noted: dose 300 mg/kg. The format is functional, organism-based.
Data set [6] relates to Mus musculus. Briefly: Neurotoxicity in mouse assessed as minimal motor impairment at 300 mg/kg, ip after 0.5 hrs by rotarod test. Format: toxicity, organism-based. Also noted: dose 300 mg/kg, route intraperitoneal. The following applies: in vivo.
The subject of a further data set is Rattus norvegicus. Briefly: Central nervous system depressant activity in Wistar rat assessed as immobility time at 100 mg/kg, po after 1 hr by forced swim pool test. The format is functional.
For data set [7], the system named is Mus musculus. Briefly: Anticonvulsant activity in ip dosed mouse after 0.5 hrs by scPTZ test. The format is functional.
The test system of data set [8] is Mus musculus. Nature of the data set: Neurotoxicity in ip dosed mouse assessed as minimal motor impairment after 0.5 hrs by rotarod test. The format is toxicity, organism-based. The following applies: in vivo.
The subject of data set [9] is Mus musculus. Nature of the data set: Neurotoxicity in ip dosed mouse assessed as minimal motor impairment at 100 mg/kg, ip after 0.25 hrs by rotarod test. The following applies: in vivo. The format is toxicity, organism-based. Also noted: dose 100 mg/kg, route intraperitoneal.
Data set [10] concerns Mus musculus. Briefly: Neurotoxicity in ip dosed mouse assessed as minimal motor impairment at 100 mg/kg, ip after 1 hr by rotarod test. Format: toxicity, organism-based. Further details: dose 100 mg/kg, route intraperitoneal. The following applies: in vivo.
Data set [11] has as its system Mus musculus. Briefly: Anticonvulsant activity in ip dosed mouse after 4 hrs by scPTZ test. The format is functional.
The subject of data set [12] is Mus musculus. Nature of the data set: Neurotoxicity in ip dosed mouse assessed as minimal motor impairment after 4 hrs by rotarod test. The format is toxicity, organism-based. Conditions: in vivo.
Data set [13] concerns Mus musculus. Briefly: Anticonvulsant activity in ip dosed mouse after 0.5 hrs by MES test. The format is functional.
Data set [14] concerns Mus musculus. Briefly: Anticonvulsant activity in ip dosed mouse after 4 hrs by MES test. The format is functional.
The test system of data set [15] is Mus musculus. Nature of the data set: Neurotoxicity in ip dosed mouse assessed as loss of righting reflux after 0.5 hrs. Format: toxicity, organism-based. Conditions: in vivo.
For data set [16], the system named is Mus musculus. Nature of the data set: Toxicity in mouse at 300 mg/kg, ip after 4 hrs. The format is organism-based. Also noted: dose 300 mg/kg, route intraperitoneal. Conditions: in vivo.

With `O=c1c2ccccc2nc(/C=C/c2cccc(Cl)c2)n1-c1nnc(/C=C/c2ccccc2)s1`, the result in the data set with Mus musculus [1], in the data set on Mus musculus [2], in the data set with Mus musculus [3] and in the data set with Mus musculus [5] was inactive. The Activity entry in the data set on Mus musculus [4] and with Mus musculus [6] was “Non-toxic” each time. The Time in the data set with Rattus norvegicus turned out to be 187.91 s.
In the case of `O=c1c2ccccc2nc(/C=C/c2ccc(Cl)cc2)n1-c1nnc(-c2cccc(Cl)c2)s1`, the Activity is 300 mg/kg in the data set on Mus musculus [7]; 300 mg/kg in the data set on Mus musculus [8]; “Non-toxic” in the data set with Mus musculus [4]; 100 mg/kg in the data set on Mus musculus [9]; 100 mg/kg in the data set on Mus musculus [10]; 300 mg/kg with Mus musculus [11]. Besides, the result with Mus musculus [1] and in the data set with Mus musculus [5] was inactive. In addition, the Time with Rattus norvegicus was 127.48 s.
With `CCC1(C)CC(=O)NC1=O` (centres undefined) [ETHOSUXIMIDE], the figures for the Activity with Mus musculus [7], with Mus musculus [4] and in the data set on Mus musculus [6] were 300 mg/kg, “Non-toxic” and “Non-toxic”, respectively. In addition, the result in the data set on Mus musculus [1], with Mus musculus [3] and in the data set with Mus musculus [5] was inactive.
In the case of `COc1ccc(-c2nnc(-n3c(/C=C/c4ccc(Cl)cc4)nc4ccccc4c3=O)s2)cc1`, the outcome in the data set on Mus musculus [1], with Mus musculus [2], in the data set on Mus musculus [3] and in the data set on Mus musculus [5] was inactive. Further, the Activity in the data set with Mus musculus [8] and with Mus musculus [12] was 300 mg/kg throughout. The Time with Rattus norvegicus came to 177.08 s.
Consider `O=C1NC(=O)C(c2ccccc2)(c2ccccc2)N1` [PHENYTOIN], for which the results for the Activity with Mus musculus [13], in the data set with Mus musculus [8] and in the data set with Mus musculus [12] were 30 mg/kg, 100 mg/kg and 100 mg/kg, respectively. Moreover, the result with Mus musculus [2] and with Mus musculus [3] was inactive. In the data set on Mus musculus [14], this molecule registered an Active dose of 30 mg/kg.
Take `O=c1c2ccccc2nc(/C=C/c2ccncc2)n1-c1nnc(-c2ccccc2)s1`: the result in the data set with Mus musculus [1], with Mus musculus [2], in the data set on Mus musculus [3] and in the data set on Mus musculus [5] was inactive. For the same molecule, the Activity result with Mus musculus [4] and in the data set with Mus musculus [6] was “Non-toxic” throughout. The Time in the data set with Rattus norvegicus was determined as 83.23 s.
Regarding `O=c1c2ccccc2nc(/C=C/c2cccc(Cl)c2)n1-c1nnc(-c2ccccc2)s1`, the outcome in the data set on Mus musculus [1], with Mus musculus [2], in the data set on Mus musculus [3] and in the data set with Mus musculus [5] was inactive. In addition, the Activity with Mus musculus [8] was 300 mg/kg; in the data set with Mus musculus [4] it was “Non-toxic”; in the data set with Mus musculus [15], “Toxic”. The Time in the data set with Rattus norvegicus amounted to 132.69 s.
Take `COc1ccc(-c2nnc(-n3c(/C=C/c4ccncc4)nc4ccccc4c3=O)s2)cc1`: the outcome in the data set on Mus musculus [1], with Mus musculus [2], in the data set on Mus musculus [3] and with Mus musculus [5] was inactive. The Activity entry in the data set with Mus musculus [4] and with Mus musculus [6] was “Non-toxic” in each case. Also, in the data set on Rattus norvegicus, the Time amounted to 168.42 s.
As to `O=c1c2ccccc2nc(/C=C/c2cccc(Cl)c2)n1-c1nnc(-c2cccc(Cl)c2)s1`, the result with Mus musculus [1], in the data set on Mus musculus [2], with Mus musculus [3] and with Mus musculus [5] was inactive. The Activity result in the data set with Mus musculus [4] and in the data set on Mus musculus [6] was “Non-toxic” in each case. Moreover, the Time in the data set with Rattus norvegicus is on record as 175.83 s.
In the case of `O=c1c2ccccc2nc(/C=C/c2ccc(Cl)cc2)n1-c1nnc(/C=C/c2ccccc2)s1`, the outcome with Mus musculus [1], with Mus musculus [2], with Mus musculus [3] and in the data set on Mus musculus [5] was inactive. The Activity entry in the data set on Mus musculus [4] and in the data set with Mus musculus [6] was “Non-toxic” throughout. For the same molecule, the Time in the data set with Rattus norvegicus came out at 73.83 s.
As to `NC(=O)N1c2ccccc2C=Cc2ccccc21` [CARBAMAZEPINE], the Activity was 100 mg/kg in the data set on Mus musculus [7]; 30 mg/kg in the data set with Mus musculus [13]; 100 mg/kg in the data set on Mus musculus [8]; 100 mg/kg in the data set on Mus musculus [12]; 300 mg/kg with Mus musculus [11]. Further, in the data set with Mus musculus [14], the Active dose worked out at 100 mg/kg.
`Cc1ccc(-c2nnc(-n3c(/C=C/c4ccc(Cl)cc4)nc4ccccc4c3=O)s2)cc1`: the outcome with Mus musculus [1], in the data set with Mus musculus [2], in the data set on Mus musculus [3] and in the data set with Mus musculus [5] was inactive. The values for the Activity with Mus musculus [8] and in the data set with Mus musculus [4] were 300 mg/kg and “Non-toxic”, respectively. Also, the Time in the data set on Rattus norvegicus is listed as 150.1 s.
Turning to `O=c1c2ccccc2nc(/C=C/c2ccncc2)n1-c1nnc(/C=C/c2ccccc2)s1`, the outcome in the data set with Mus musculus [1], with Mus musculus [2], in the data set with Mus musculus [3] and with Mus musculus [5] was inactive. Besides, the Activity entry with Mus musculus [4] and in the data set on Mus musculus [6] was “Non-toxic” each time. Moreover, the Time with Rattus norvegicus worked out at 114.42 s.
As for `Cc1ccc(-c2nnc(-n3c(/C=C/c4cccc(Cl)c4)nc4ccccc4c3=O)s2)cc1`, the outcome with Mus musculus [1], in the data set with Mus musculus [2], in the data set on Mus musculus [3] and with Mus musculus [5] was inactive. In addition, the Activity entry with Mus musculus [4] and in the data set on Mus musculus [6] was “Non-toxic” each time. Further, in the data set on Rattus norvegicus, the Time came to 100.76 s.
`O=c1c2ccccc2nc(/C=C/c2ccc(Cl)cc2)n1-c1nnc(-c2ccc(Cl)cc2)s1`: the result in the data set with Mus musculus [1], in the data set on Mus musculus [2], with Mus musculus [3] and in the data set on Mus musculus [5] was inactive. The results for the Activity in the data set on Mus musculus [8] and in the data set with Mus musculus [4] were 300 mg/kg and “Non-toxic”, respectively. Besides, the Time with Rattus norvegicus stood at 117.93 s.
For the molecule `O=c1c2ccccc2nc(/C=C/c2ccc(Cl)cc2)n1-c1nnc(-c2ccccc2)s1`, the Activity is 300 mg/kg in the data set with Mus musculus [7]; 100 mg/kg in the data set with Mus musculus [13]; “Non-toxic” in the data set on Mus musculus [4]; “Toxic” in the data set on Mus musculus [16]; 300 mg/kg in the data set with Mus musculus [11]; “Non-toxic” with Mus musculus [6]. In addition, the Active dose with Mus musculus [14] is 300 mg/kg. Besides, the Time in the data set with Rattus norvegicus was determined as 103.26 s.
Regarding `CCCC(CCC)C(=O)[O-].[Na+]` [VALPROATE SODIUM], the Activity with Mus musculus [7] is 300 mg/kg; with Mus musculus [4], “Non-toxic”; with Mus musculus [6] it was “Non-toxic”. Also, the result in the data set with Mus musculus [1], with Mus musculus [3] and with Mus musculus [5] was inactive.
As for `Cc1ccc(-c2nnc(-n3c(/C=C/c4ccncc4)nc4ccccc4c3=O)s2)cc1`, the result in the data set on Mus musculus [1], with Mus musculus [2], in the data set with Mus musculus [3] and in the data set with Mus musculus [5] was inactive. The Activity with Mus musculus [8] was 100 mg/kg; in the data set on Mus musculus [4] it was “Non-toxic”. The Time in the data set with Rattus norvegicus stood at 131.51 s.
Consider `O=c1c2ccccc2nc(/C=C/c2ccncc2)n1-c1nnc(-c2ccc(Cl)cc2)s1`, for which the Activity was 300 mg/kg in the data set with Mus musculus [7], 300 mg/kg in the data set with Mus musculus [8], “Non-toxic” in the data set on Mus musculus [4] and 300 mg/kg in the data set with Mus musculus [11]. Also, the result with Mus musculus [1] was inactive. For the same molecule, the Active dose with Mus musculus [14] was determined as 100 mg/kg. The Time with Rattus norvegicus is recorded as 99.82 s.
As to `O=c1c2ccccc2nc(/C=C/c2ccncc2)n1-c1nnc(-c2cccc(Cl)c2)s1`, the result with Mus musculus [1], in the data set with Mus musculus [2], with Mus musculus [3] and with Mus musculus [5] was inactive. Moreover, the Activity with Mus musculus [8] and with Mus musculus [12] was 300 mg/kg throughout. In the data set on Rattus norvegicus, the Time is on record as 142.36 s.
Take `O=c1c2ccccc2nc(/C=C/c2cccc(Cl)c2)n1-c1nnc(-c2ccc(Cl)cc2)s1`: the result in the data set with Mus musculus [1], in the data set on Mus musculus [2], in the data set with Mus musculus [3] and in the data set on Mus musculus [5] was inactive. The Activity result with Mus musculus [4] and in the data set on Mus musculus [6] was “Non-toxic” each time. Moreover, the Time in the data set with Rattus norvegicus is reported as 163.75 s.
`COc1ccc(-c2nnc(-n3c(/C=C/c4cccc(Cl)c4)nc4ccccc4c3=O)s2)cc1`: the result with Mus musculus [1], in the data set with Mus musculus [2], in the data set with Mus musculus [3] and with Mus musculus [5] was inactive. The Activity result in the data set on Mus musculus [4] and with Mus musculus [6] was “Non-toxic” in each case. In addition, the Time in the data set on Rattus norvegicus is listed as 163.21 s.

Source of the values: ChEMBL document CHEMBL1156712, “CNS depressant and anticonvulsant activities of some novel 3-[5-substituted 1,3,4-thiadiazole-2-yl]-2-styryl quinazoline-4(3H)-ones” (Eur J Med Chem, 2008).
